Test results published in ChEMBL document CHEMBL1154132, “Mycophenolic derivatives from Eupenicillium parvum” (J Nat Prod, 2008).
Activity calls are given as the source filed them. The calls are words filed in the database; no cut-off is given here.

Legend:
Type in all cases: functional, organism-based
Aspergillus fumigatus = assay: Antimicrobial activity against Aspergillus fumigatus […] by standard disk assay
Escherichia coli = assay: Antimicrobial activity against Escherichia coli ATCC 35218 by standard disk assay
Pseudomonas aeruginosa = assay: Antimicrobial activity against Pseudomonas aeruginosa ATCC 27853 by standard disk assay
[1] = system: Mycobacterium intracellulare; assay: Antimicrobial activity against Mycobacterium intracellular […] by alamar blue assay
Staphylococcus aureus = assay: Antimicrobial activity against methicillin-resistant Staphylococcus aureus ATCC 43300 by standard disk assay
Candida albicans = assay: Antimicrobial activity against Candida albicans ATCC 90028 by standard disk assay
Cryptococcus neoformans = assay: Antimicrobial activity against Cryptococcus neoformans ATCC 90113 by standard disk assay

Row | Structure (SMILES) | Activity (Aspergillus fumigatus) | Activity (Escherichia coli) | Activity (Pseudomonas aeruginosa) | Activity [1] | Activity (Staphylococcus aureus) | IC50 (Candida albicans) [µM] | IC50 (Cryptococcus neoformans) [µM]
1 | COc1c(C)c2c(c(O)c1CC[C@H](C)C(=O)O)C(=O)OC2 | inactive | inactive | inactive | inactive |  |  | 
2 | Cc1c(O)c(CC[C@H](C)C(=O)O)c(O)c2c1COC2=O | inactive | inactive | inactive | inactive | inactive |  | 
3 | COc1c(C)c2c(c(O)c1C/C=C(\C)[C@@H](O)CC(=O)O)C(=O)OC2 | inactive | inactive | inactive | inactive | inactive |  | 
4 | COc1c(C)c2c(c(O)c1C/C=C(\C)CCC(=O)O)C(=O)OC2 [MYCOPHENOLIC ACID] | inactive | inactive | inactive | inactive | inactive | 8 | 15
5 | COC(=O)C[C@H](O)/C(C)=C/Cc1c(OC)c(C)c2c(c1OC)C(=O)OC2 | inactive | inactive | inactive | inactive | inactive |  | 
6 | Cc1c(O)cc(O)c2c1COC2=O | inactive | inactive | inactive | inactive | inactive |  | 
